In PubChem BioAssay (NCI):
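Following 48 hours of exposure in 96-well plates, responses at five concentrations were used to interpolate endpoints linearly. At the TGI there is no net growth.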

Assays:
Test in all cases: DTP human tumour cell line panel, 48 h
[1] = system: SNB-19 CNS
[2] = system: SNB-75 CNS
[3] = system: MOLT-4 leukemia
[4] = system: UO-31 renal
[5] = system: A498 renal
[6] = system: OVCAR-8 ovarian
[7] = system: SF-268 CNS
[8] = system: NCI/ADR-RES ovarian
[9] = system: M14 melanoma
[10] = system: T-47D breast
[11] = system: CAKI-1 renal
[12] = system: SK-OV-3 ovarian
[13] = system: SN12C renal
[14] = system: NCI-H226 lung
[15] = system: OVCAR-4 ovarian
[16] = system: OVCAR-5 ovarian
[17] = system: HT29 colon
[18] = system: RPMI-8226 leukemia
[19] = system: U251 CNS
[20] = system: SNB-78 CNS
[21] = system: SF-295 CNS
[22] = system: COLO 205 colon
[23] = system: MCF7 breast
[24] = system: HOP-62 NSCLC
[25] = system: SW-620 colon
[26] = system: MDA-MB-231 breast
[27] = system: CCRF-CEM leukemia
[28] = system: HOP-18 NSCLC
[29] = system: NCI-H460 lung
[30] = system: NCI-H522 lung
[31] = system: HCC-2998 colon
[32] = system: 786-0 renal
[33] = system: HCT-15 colon
[34] = system: HS 578T breast
[35] = system: SR leukemia
[36] = system: MDA-MB-435
[37] = system: LOX IMVI melanoma
[38] = system: NCI-H23 lung
[39] = system: ACHN renal
[40] = system: DMS 114 small cell lung
[41] = system: M19-MEL melanoma
[42] = system: HL-60(TB) leukemia
[43] = system: LXFL 529 NSCLC
[44] = system: EKVX NSCLC
[45] = system: RXF 393 renal
[46] = system: RXF-631 renal
[47] = system: BT-549 breast
[48] = system: OVCAR-3 ovarian
[49] = system: SK-MEL-5 melanoma
[50] = system: MALME-3M melanoma
[51] = system: DMS 273 small cell lung
[52] = system: PC-3 prostate
[53] = system: K-562 leukemia
[54] = system: DLD-1 colon
[55] = system: MDA-N
[56] = system: HCT-116 colon
[57] = system: A549 NSCLC
[58] = system: TK-10 renal
[59] = system: SF-539 CNS
[60] = system: HOP-92 NSCLC
[61] = system: IGROV1 ovarian
[62] = system: KM12 colon
[63] = system: UACC-62 melanoma
[64] = system: KM20L2 colon
[65] = system: UACC-257 melanoma
[66] = system: DU-145 prostate
[67] = system: SK-MEL-28 melanoma
[68] = system: SK-MEL-2 melanoma
[69] = system: XF 498 CNS

`O=C(/C=C/c1ccc(OCCSCCCCCCCCCCSCCOc2ccc(/C=C/C(=O)c3ccc(Cl)cc3)cc2)cc1)c1ccc(Cl)cc1` was tested. Which TGI [1] did it give?
The TGI was > 100 µM.

And the TGI [2]?
The TGI was 63.3 µM.

And the TGI [3]?
Its TGI is > 100 µM.

What about the TGI [4] of the same molecule?
The TGI was > 100 µM.

And the TGI [5]?
The TGI was > 100 µM.

What about the TGI [6] of the same molecule?
Its TGI is > 100 µM.

What about the TGI [7] of the same molecule?
Its TGI is > 100 µM.

And the TGI [8]?
Its TGI is > 100 µM.

And the TGI [9]?
The TGI was > 100 µM.

And the TGI [10]?
The TGI was > 100 µM.

What about the TGI [11] of the same molecule?
The TGI was > 100 µM.

And the TGI [12]?
The TGI was > 92.8 µM.

What about the TGI [13] of the same molecule?
Its TGI is > 100 µM.

What about the TGI [14] of the same molecule?
Its TGI is > 100 µM.

What about the TGI [15] of the same molecule?
The TGI was > 100 µM.

What about the TGI [16] of the same molecule?
The TGI was > 100 µM.

What about the TGI [17] of the same molecule?
The TGI was > 100 µM.

What about the TGI [18] of the same molecule?
Its TGI is > 100 µM.

And the TGI [19]?
The TGI was > 100 µM.

And the TGI [20]?
Its TGI is > 100 µM.

What about the TGI [21] of the same molecule?
The TGI was > 97.6 µM.

What about the TGI [22] of the same molecule?
Its TGI is > 100 µM.

And the TGI [23]?
Its TGI is > 100 µM.

What about the TGI [24] of the same molecule?
The TGI was 95.4 µM.

What about the TGI [25] of the same molecule?
Its TGI is > 100 µM.

What about the TGI [26] of the same molecule?
The TGI was > 100 µM.

And the TGI [27]?
The TGI was > 100 µM.

And the TGI [28]?
Its TGI is > 100 µM.

And the TGI [29]?
Its TGI is > 100 µM.

And the TGI [30]?
Its TGI is > 100 µM.

What about the TGI [31] of the same molecule?
The TGI was > 100 µM.

And the TGI [32]?
Its TGI is > 100 µM.

What about the TGI [33] of the same molecule?
The TGI was > 100 µM.

And the TGI [34]?
The TGI was > 100 µM.

And the TGI [35]?
Its TGI is > 100 µM.

What about the TGI [36] of the same molecule?
The TGI was > 100 µM.

What about the TGI [37] of the same molecule?
The TGI was > 100 µM.

What about the TGI [38] of the same molecule?
Its TGI is > 100 µM.

What about the TGI [39] of the same molecule?
The TGI was > 100 µM.

What about the TGI [40] of the same molecule?
Its TGI is > 100 µM.

What about the TGI [41] of the same molecule?
The TGI was > 100 µM.

And the TGI [42]?
Its TGI is > 100 µM.

What about the TGI [43] of the same molecule?
Its TGI is > 100 µM.

And the TGI [44]?
The TGI was > 100 µM.

And the TGI [45]?
Its TGI is > 80.6 µM.

What about the TGI [46] of the same molecule?
Its TGI is > 100 µM.

And the TGI [47]?
The TGI was > 100 µM.

And the TGI [48]?
The TGI was > 100 µM.

And the TGI [49]?
Its TGI is > 100 µM.

And the TGI [50]?
Its TGI is > 100 µM.

And the TGI [51]?
The TGI was > 100 µM.

What about the TGI [52] of the same molecule?
The TGI was > 100 µM.

And the TGI [53]?
Its TGI is > 100 µM.

What about the TGI [54] of the same molecule?
The TGI was > 100 µM.

And the TGI [55]?
The TGI was > 100 µM.

And the TGI [56]?
Its TGI is > 100 µM.

What about the TGI [57] of the same molecule?
The TGI was > 100 µM.

And the TGI [58]?
Its TGI is > 100 µM.

And the TGI [59]?
The TGI was > 81.7 µM.

What about the TGI [60] of the same molecule?
The TGI was 81.6 µM.

And the TGI [61]?
The TGI was > 100 µM.

What about the TGI [62] of the same molecule?
The TGI was > 100 µM.

What about the TGI [63] of the same molecule?
The TGI was > 100 µM.

What about the TGI [64] of the same molecule?
Its TGI is > 100 µM.

What about the TGI [65] of the same molecule?
The TGI was > 100 µM.

What about the TGI [66] of the same molecule?
Its TGI is > 100 µM.

And the TGI [67]?
Its TGI is > 100 µM.

What about the TGI [68] of the same molecule?
Its TGI is > 100 µM.

With `CCC12CCCN(Cc3ccccc3)C1c1c(n(C)c3ccccc13)[C@H](C(=O)OC)C2` (stereo not given in full) as the molecule, how does the TGI [1] read?
Its TGI is > 239 µM.

And the TGI [3]?
Its TGI is > 239 µM.

And the TGI [6]?
Its TGI is > 239 µM.

And the TGI [7]?
Its TGI is > 239 µM.

And the TGI [11]?
Its TGI is > 239 µM.

What about the TGI [12] of the same molecule?
Its TGI is > 239 µM.

What about the TGI [13] of the same molecule?
The TGI was > 239 µM.

What about the TGI [14] of the same molecule?
Its TGI is > 239 µM.

What about the TGI [16] of the same molecule?
Its TGI is > 239 µM.

And the TGI [17]?
Its TGI is 142 µM.

And the TGI [18]?
The TGI was > 239 µM.

What about the TGI [19] of the same molecule?
The TGI was > 239 µM.

What about the TGI [21] of the same molecule?
The TGI was > 239 µM.

What about the TGI [22] of the same molecule?
The TGI was > 239 µM.

What about the TGI [24] of the same molecule?
The TGI was > 239 µM.

And the TGI [25]?
The TGI was > 239 µM.

What about the TGI [27] of the same molecule?
The TGI was > 239 µM.

And the TGI [29]?
Its TGI is > 239 µM.

What about the TGI [30] of the same molecule?
Its TGI is > 239 µM.

And the TGI [31]?
The TGI was > 239 µM.

And the TGI [32]?
The TGI was > 239 µM.

And the TGI [33]?
Its TGI is > 239 µM.

And the TGI [35]?
Its TGI is > 239 µM.

What about the TGI [37] of the same molecule?
The TGI was > 239 µM.

What about the TGI [38] of the same molecule?
The TGI was > 239 µM.

What about the TGI [39] of the same molecule?
Its TGI is > 239 µM.

What about the TGI [40] of the same molecule?
The TGI was > 239 µM.

And the TGI [41]?
The TGI was > 239 µM.

And the TGI [42]?
Its TGI is > 239 µM.

What about the TGI [43] of the same molecule?
Its TGI is > 239 µM.

What about the TGI [44] of the same molecule?
The TGI was > 239 µM.

What about the TGI [45] of the same molecule?
The TGI was > 239 µM.

What about the TGI [46] of the same molecule?
Its TGI is > 239 µM.

What about the TGI [48] of the same molecule?
Its TGI is > 239 µM.

What about the TGI [69] of the same molecule?
The TGI was > 239 µM.

What about the TGI [49] of the same molecule?
Its TGI is > 239 µM.

And the TGI [50]?
Its TGI is > 239 µM.

And the TGI [51]?
The TGI was > 239 µM.

And the TGI [53]?
The TGI was > 239 µM.

And the TGI [54]?
The TGI was > 239 µM.

What about the TGI [56] of the same molecule?
The TGI was > 239 µM.

What about the TGI [57] of the same molecule?
The TGI was > 239 µM.

What about the TGI [58] of the same molecule?
Its TGI is > 239 µM.

And the TGI [59]?
The TGI was > 239 µM.

What about the TGI [60] of the same molecule?
The TGI was 238 µM.

What about the TGI [61] of the same molecule?
The TGI was > 239 µM.

What about the TGI [62] of the same molecule?
The TGI was > 239 µM.

What about the TGI [63] of the same molecule?
Its TGI is > 239 µM.

What about the TGI [64] of the same molecule?
The TGI was > 239 µM.

What about the TGI [65] of the same molecule?
The TGI was > 239 µM.

What about the TGI [67] of the same molecule?
The TGI was > 239 µM.

And the TGI [68]?
Its TGI is > 239 µM.
